Test [1] concerns the target megalin (Mus musculus, UniProt A2ARV4). As to conditions: described in PTL 1; cited from earlier work.
Test [2] deals with T1, transcobalamin 2 (TCN2) (Rattus norvegicus, UniProt Q9R0D6).
T1 construct: purchased LifeSpan BioSciences, Inc
T1 sequence (Q9R0D6 19-427): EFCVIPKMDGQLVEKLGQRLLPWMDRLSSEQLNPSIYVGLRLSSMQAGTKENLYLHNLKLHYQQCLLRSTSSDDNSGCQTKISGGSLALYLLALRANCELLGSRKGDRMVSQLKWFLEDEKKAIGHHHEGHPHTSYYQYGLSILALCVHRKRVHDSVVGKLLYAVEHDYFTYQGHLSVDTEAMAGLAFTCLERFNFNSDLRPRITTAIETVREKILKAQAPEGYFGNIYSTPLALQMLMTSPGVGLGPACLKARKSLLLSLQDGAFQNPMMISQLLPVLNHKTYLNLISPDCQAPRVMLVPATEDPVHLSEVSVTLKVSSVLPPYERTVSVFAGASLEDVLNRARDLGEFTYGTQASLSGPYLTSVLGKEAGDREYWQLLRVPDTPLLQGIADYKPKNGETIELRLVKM
The experiment in a line: Competition against binding of TCN2 to contrast medium-immobilized beads, Western blotting. As to conditions: 25 ng/µL TCN2 + test substance; contrast medium beads (iomeprol, ioversol, iodixanol, iopromide, iohexol) at 10 mM feed; FIG. 6 to FIG. 10. From the text:
Iodinated contrast media used were the bulk of iomeprol, the bulk of ioversol, the bulk of iodixanol, the bulk of iopromide, and the bulk of iohexol. Evaluations were made using these solid-phased beads.
For test chemicals for competing with the binding, vitamin B12 (cyanocobalamin, methylcobalamin, or hydroxocobalamin), cilastatin, and iomeprol (iodinated contrast medium) were used. Cilastatin and iomeprol are positive controls of inhibition.
The solution/beads combinations adopted were as mentioned below. • Solution a) + contrast medium-immobilized beads prepared at 0 mM contrast medium feed concentration (control) • Solution a) + contrast medium-immobilized beads prepared at 10 mM contrast medium feed concentration (no competition) • Solution b) + contrast medium-immobilized beads prepared at 10 mM contrast medium feed concentration (competition with vitamin B12, iomeprol, or cilastatin)
Background: In western blotting, separated proteins are transferred to a membrane and probed.

The target of test [3] is T1, transcobalamin 2 (TCN2). Description: Binding of TCN2 to iomeprol-immobilized magnetic beads, Western blotting with anti-TCN2 antibody. As to conditions: feed concentrations 0, 3 and 10 mM, 25 ng/µL TCN2, 4° C., 4 hours, FIG. 5. Here is the method:
The bulk of iodinated contrast medium was dissolved, just before use, in a solvent in which glycidylmethacrylate-coated magnetic beads (FG beads®, particle size: 0.2 µm, produced by Tamagawa Seiki Co., Ltd.) were dispersed, to initiate chemical bonding between […] present on the surface of the magnetic beads and hydroxyl groups in the contrast medium, whereby contrast medium-immobilized magnetic beads were prepared.
The iodinated contrast medium used was the bulk of iomeprol. At feed concentrations of 0 mM, 3 mM and 10 mM, the iodinated contrast medium was immobilized by chemical bonding. The preparation of the iomeprol-immobilized beads was conducted by Tamagawa Seiki Co., Ltd. […]
The TCN2-containing samples were subjected to SDS-polyacrylamide electrophoresis under reducing conditions using 4-15% gradient gels (produced by Bio-Rad Laboratories), and the developed samples were transferred onto polyvinylidene fluoride (PVDF) membranes. […] Then, bands were detected using chemiluminescent substrate for western blotting (SuperSignal™ West Femto Maximum Sensitivity Substrate; Thermo Scientific™).

In the next test the test system is C57BL/6J mice. The experiment in a line: Contrast-induced renal injury model (left nephrectomy, ischemia-reperfusion, then iomeprol). As to conditions: 200 µL iomeprol + 100 µL of 1 mg/mL cyanocobalamin, vs iomeprol + normal saline.
Test [4] deals with renal proximal tubular epithelial cells. Description: Internalization of iodinated contrast medium into kidney cortex, iodine/nitrogen ratio by EPMA. The format is in vivo, C57BL/6J mice. Particulars: 100 µL iomeprol + 100 µL of 1 mg/mL cyanocobalamin, tail vein; kidneys 3 hours later; vs iomeprol + normal saline control; t-test; FIG. 1. Here is the method: The prepared sections were analyzed by EPMA (EPMA1610; Shimadzu Ltd, Kyoto, Japan) by following the procedure described below to examine whether there is a difference in the internalization of a contrast medium between the contrast medium + vitamin B12-treated group and the contrast medium + normal saline-treated group.
EPMA is an electron microprobe (EMP) instrument that analyzes the constituent elements of a substance of interest by irradiating electron beams onto the substance and measuring the wavelengths and intensities of characteristic X-rays unique to the different elements, which are generated by the electron beams. The iodine content in sections can be determined by EMP analysis (Norby, et al., Scanning Microsc, 1990, vol.4, p.651-666). […] The behaviors of iodinated contrast media per se can be verified by analyzing iodine content distribution.
The “thin-film quantification” technique can be applied for analysis of biological samples such as kidney tissue sections. […]
Therefore, by calculating a ratio of characteristic X-ray intensity between iodine (I) and nitrogen (N) (I/N) in a specified area of biological samples, iodine (I) in different samples can be relatively quantified and compared.
Based on this principle, the sections obtained by the above experiment were analyzed by EPMA, and iodine in a specified area was relatively quantified and compared among the samples. […]

The target in test [5] is T2, megalin (Rattus norvegicus, UniProt P98158).
T2 construct: megalin purified from Sprague-Dawley (SD) rat kidneys; from tissue; host or cells: Sprague-Dawley rat kidneys (megalin purified by the method of Orlando et al.); TCN2 purchased from LifeSpan BioSciences
Description: Quartz crystal microbalance (QCM) binding of transcobalamin 2 to immobilized megalin. More on the design: species or system Sprague-Dawley (SD) rat. Particulars: 1.5 µg recombinant rat transcobalamin 2 injected on megalin-immobilized quartz crystals; BSA control decreased only 20 to 30 Hz; FIG. 4. The protocol:
According to the method of Orlando, et al., megalin purified from Sprague-Dawley (SD) rat kidneys was immobilized on quartz crystals. To be specific, with the use of an immobilization kit for AFFINIX® (Initium Inc.) according to the recommended protocol for the kit, a megalin solution was prepared in Buffer A as provided with the kit to a concentration of 62.5 µg/mL, and placed and immobilized on the quartz crystals mounted in a holder.
After the megalin-immobilized quartz crystals were mounted in the measurement instrument AFFINIX® Q8 (Initium Inc.) and the frequency was confirmed to be stable, recombinant rat transcobalamin 2 proteins (TCN2 LifeSpan Bio Sciences, Inc.) (1.5 µg) were injected (in total injection volume) to measure frequency over time. More specifically, after the megalin-immobilized quartz crystals were immersed in 200 µL of buffer and the frequency was confirmed to be stable, transcobalamin 2 was injected and frequency was measured. The same measurement was done on quartz crystals, as a control, on which the same amount of bovine serum albumin (BSA) was immobilized instead of megalin, and the specific binding ability of transcobalamin 2 to megalin was analyzed.

This is an account of results in patent publication US20230346823A1, “UTILIZATION OF VITAMIN B12 IN INHIBITING RENAL DISORDER” (Niigata University, priority 2020, published 2023).

Chain of megalin (Mus musculus, UniProt A2ARV4) (A2ARV4 26-4660): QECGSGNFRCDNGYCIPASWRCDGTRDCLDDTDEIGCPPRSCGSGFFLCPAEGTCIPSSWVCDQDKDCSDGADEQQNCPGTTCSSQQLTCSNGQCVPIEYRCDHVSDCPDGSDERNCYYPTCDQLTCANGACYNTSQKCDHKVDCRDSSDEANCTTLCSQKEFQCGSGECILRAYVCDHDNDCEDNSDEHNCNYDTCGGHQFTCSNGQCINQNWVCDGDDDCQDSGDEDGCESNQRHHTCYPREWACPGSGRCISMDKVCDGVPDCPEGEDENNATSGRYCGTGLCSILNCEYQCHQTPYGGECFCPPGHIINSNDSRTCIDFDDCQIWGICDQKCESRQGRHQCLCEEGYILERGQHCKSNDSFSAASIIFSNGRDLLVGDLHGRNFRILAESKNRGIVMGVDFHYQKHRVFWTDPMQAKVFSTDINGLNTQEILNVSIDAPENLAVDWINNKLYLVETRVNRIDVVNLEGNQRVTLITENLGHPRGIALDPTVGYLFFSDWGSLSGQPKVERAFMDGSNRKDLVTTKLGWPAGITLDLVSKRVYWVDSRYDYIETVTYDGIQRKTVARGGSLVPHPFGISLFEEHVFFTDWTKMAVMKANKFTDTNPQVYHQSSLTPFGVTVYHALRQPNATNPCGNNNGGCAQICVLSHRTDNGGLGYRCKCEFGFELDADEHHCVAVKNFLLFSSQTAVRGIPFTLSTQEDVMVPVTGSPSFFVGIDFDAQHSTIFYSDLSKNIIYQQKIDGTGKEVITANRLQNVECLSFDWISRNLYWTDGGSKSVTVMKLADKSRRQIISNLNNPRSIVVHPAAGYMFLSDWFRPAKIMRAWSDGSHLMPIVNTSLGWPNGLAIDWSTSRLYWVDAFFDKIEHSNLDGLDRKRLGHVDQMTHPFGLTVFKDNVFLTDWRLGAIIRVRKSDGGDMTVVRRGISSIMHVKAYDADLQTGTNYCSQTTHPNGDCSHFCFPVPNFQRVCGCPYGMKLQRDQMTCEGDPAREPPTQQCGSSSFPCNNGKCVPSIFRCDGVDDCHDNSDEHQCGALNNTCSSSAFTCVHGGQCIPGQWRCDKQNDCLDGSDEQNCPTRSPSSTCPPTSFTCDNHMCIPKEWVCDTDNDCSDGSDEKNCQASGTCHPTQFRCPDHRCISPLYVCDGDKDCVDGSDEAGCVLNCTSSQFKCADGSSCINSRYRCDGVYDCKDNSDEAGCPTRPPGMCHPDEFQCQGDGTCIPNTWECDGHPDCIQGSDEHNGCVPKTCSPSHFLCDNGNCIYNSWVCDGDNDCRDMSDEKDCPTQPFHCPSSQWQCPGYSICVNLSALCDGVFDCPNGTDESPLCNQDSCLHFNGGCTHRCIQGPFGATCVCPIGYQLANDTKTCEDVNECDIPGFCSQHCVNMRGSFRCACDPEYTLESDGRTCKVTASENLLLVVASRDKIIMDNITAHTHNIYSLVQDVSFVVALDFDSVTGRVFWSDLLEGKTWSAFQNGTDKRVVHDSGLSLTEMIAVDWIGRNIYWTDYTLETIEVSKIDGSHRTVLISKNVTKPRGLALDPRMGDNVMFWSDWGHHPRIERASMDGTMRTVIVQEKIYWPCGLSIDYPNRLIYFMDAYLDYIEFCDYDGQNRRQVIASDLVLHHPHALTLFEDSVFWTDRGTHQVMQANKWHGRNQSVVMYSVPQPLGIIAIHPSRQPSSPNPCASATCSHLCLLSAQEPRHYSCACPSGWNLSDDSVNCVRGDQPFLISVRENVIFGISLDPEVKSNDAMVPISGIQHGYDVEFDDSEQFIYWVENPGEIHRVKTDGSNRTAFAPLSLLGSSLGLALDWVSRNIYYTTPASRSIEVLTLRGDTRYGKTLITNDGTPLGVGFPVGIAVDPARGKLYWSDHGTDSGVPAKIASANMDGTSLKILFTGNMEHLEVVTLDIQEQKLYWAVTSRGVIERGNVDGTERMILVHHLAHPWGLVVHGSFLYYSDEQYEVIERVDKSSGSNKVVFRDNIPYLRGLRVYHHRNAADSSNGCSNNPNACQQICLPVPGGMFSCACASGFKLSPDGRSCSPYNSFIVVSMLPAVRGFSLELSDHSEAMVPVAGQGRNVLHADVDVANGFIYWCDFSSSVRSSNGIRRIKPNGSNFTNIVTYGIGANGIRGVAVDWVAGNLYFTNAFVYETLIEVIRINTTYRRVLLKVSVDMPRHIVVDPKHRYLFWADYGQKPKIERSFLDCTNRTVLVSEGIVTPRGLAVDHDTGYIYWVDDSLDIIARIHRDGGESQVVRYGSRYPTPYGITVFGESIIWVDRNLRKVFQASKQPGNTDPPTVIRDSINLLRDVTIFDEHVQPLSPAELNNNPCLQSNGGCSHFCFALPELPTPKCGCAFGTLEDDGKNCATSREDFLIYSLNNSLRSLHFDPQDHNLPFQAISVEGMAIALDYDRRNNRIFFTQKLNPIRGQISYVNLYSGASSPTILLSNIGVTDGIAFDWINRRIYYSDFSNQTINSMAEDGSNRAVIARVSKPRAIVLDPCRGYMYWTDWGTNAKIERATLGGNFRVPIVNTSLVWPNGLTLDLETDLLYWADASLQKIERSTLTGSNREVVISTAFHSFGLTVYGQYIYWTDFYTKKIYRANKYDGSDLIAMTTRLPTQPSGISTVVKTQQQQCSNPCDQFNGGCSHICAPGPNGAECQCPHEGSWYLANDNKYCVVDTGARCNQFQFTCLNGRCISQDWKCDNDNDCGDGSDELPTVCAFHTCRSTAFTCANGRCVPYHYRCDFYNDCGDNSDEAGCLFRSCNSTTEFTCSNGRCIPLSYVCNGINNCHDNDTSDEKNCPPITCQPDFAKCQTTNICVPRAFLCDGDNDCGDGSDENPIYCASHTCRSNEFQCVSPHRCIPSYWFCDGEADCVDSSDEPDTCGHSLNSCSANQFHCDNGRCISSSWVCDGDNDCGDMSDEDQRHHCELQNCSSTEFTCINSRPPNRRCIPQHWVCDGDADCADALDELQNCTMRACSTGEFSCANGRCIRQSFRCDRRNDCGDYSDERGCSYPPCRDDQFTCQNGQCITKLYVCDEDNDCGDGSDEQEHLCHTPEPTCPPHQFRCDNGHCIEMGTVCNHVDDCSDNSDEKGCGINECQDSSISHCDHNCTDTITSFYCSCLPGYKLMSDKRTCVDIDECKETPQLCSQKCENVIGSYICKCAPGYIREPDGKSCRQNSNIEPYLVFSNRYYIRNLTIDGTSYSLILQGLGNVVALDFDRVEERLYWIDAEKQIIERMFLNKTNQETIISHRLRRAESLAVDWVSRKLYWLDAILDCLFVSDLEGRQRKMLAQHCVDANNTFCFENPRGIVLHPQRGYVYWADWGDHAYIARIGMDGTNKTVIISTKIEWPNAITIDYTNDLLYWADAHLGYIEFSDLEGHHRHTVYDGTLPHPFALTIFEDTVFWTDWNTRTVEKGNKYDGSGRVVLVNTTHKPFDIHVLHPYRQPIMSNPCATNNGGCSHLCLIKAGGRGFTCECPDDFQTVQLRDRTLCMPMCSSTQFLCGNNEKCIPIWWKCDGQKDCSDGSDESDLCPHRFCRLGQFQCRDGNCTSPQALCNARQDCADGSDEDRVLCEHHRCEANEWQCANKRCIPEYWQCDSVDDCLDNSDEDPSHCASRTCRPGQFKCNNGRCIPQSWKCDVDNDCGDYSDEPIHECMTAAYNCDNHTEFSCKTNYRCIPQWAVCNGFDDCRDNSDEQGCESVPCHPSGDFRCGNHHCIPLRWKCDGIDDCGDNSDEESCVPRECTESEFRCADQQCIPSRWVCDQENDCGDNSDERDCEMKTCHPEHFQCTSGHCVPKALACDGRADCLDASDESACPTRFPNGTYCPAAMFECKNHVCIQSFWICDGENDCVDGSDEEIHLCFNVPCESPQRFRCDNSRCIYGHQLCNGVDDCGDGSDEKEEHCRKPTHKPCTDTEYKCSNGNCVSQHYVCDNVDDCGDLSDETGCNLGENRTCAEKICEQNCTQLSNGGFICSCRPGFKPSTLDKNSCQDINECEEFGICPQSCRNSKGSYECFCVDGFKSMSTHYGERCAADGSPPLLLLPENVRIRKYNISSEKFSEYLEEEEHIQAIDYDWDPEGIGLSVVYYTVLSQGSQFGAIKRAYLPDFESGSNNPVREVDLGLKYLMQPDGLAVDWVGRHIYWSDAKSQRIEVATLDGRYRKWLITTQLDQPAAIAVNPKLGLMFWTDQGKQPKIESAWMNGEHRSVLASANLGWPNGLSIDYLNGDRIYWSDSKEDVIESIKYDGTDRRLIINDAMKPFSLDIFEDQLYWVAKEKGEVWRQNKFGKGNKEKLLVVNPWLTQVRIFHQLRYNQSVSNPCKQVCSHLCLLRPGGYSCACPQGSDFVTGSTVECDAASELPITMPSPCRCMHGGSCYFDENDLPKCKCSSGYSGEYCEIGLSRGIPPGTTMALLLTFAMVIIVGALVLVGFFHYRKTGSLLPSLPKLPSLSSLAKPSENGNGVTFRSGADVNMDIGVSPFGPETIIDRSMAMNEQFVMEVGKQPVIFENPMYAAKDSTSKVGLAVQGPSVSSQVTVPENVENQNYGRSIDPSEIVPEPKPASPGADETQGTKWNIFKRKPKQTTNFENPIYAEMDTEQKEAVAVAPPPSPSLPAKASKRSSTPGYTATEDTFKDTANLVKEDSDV
Description for C57BL/6J mice: Left kidneys were extracted from the C57BL/6J mice, and 14 days later, right kidney pedicles were ligated for 30 minutes. Thereafter, reperfusion was carried out. After 24 hours from the start of reperfusion, the C57BL/6J mice were divided into the following groups and administered with the following agents from the tail vein. • a) Contrast medium + vitamin B12-treated group: 200 µL of iomeprol + 100 µL of 1 mg/mL of cyanocobalamin solution • b) Contrast medium + normal saline-treated group (control): 200 µL of iomeprol + 100 µL of normal saline
For each of the groups, 24 hours before anatomizing, urine samples were collected using a metabolic cage, the mice were anatomized after 48 hours from the medication, then urinary kidney injury molecule-1 (KIM-1) was measured. Urinary KIM-1 measurements were conducted by Oriental Yeast Co., Ltd.
Further, right kidneys were extracted and histologically evaluated by immunostaining with KIM-1. To be specific, 3 mm-thick sections containing a kidney pedicle portion were prepared from the right kidneys, fixed with 4% paraformaldehyde phosphate buffer, sliced at a thickness of 4 µm using a microtome (REM-710; Yamato Kohki Industrial Co., Ltd.), and the obtained thin slices were immunostained with the renal injury marker KIM-1. The immunostaining was performed using VECTASTAIN Elite ABC Kit (Vector Laboratories, Inc.). […]

As to `CC1(C)C[C@@H]1C(=O)N/C(=C\CCCCSC[C@H](N)C(=O)O)C(=O)O` [cilastatin, (Z)-7-[[(R)-2-Amino-2-carboxyethyl]thio]-2-[[[(S)-2,2-dimethylcyclopropyl]carbonyl]amino]-2-heptenoic acid], on megalin [1], the “megalin-dependent internalization of iodinated contrast media into renal proximal tubular epithelial cells” value is reported as “inhibits” and the renal injuries result was “inhibits renal injuries”. In addition, the “TCN2 bands by competition with test substance” value (shortened to “TCN2 bands by competition”) on transcobalamin 2 (TCN2) [2] was “concentration-dependent decrease in TCN2 bands”.

In the case of `C/C1=C2/[N-][C@H]([C@H](CC(N)=O)[C@@]2(C)CCC(=O)NC[C@@H](C)OP(=O)([O-])O[C@H]2[C@@H](O)[C@@H](n3cnc4cc(C)c(C)cc43)O[C@@H]2CO)[C@]2(C)N=C(/C(C)=C3N=C(/C=C4N=C1[C@@H](CCC(N)=O)C\4(C)C)[C@@H](CCC(N)=O)[C@]\3(C)CC(N)=O)[C@@H](CCC(N)=O)[C@]2(C)CC(N)=O.[Co+3].[OH-]` [hydroxocobalamin], on transcobalamin 2 (TCN2) [2], the “TCN2 bands by competition” value is “concentration-dependent decrease in TCN2 bands”.

In the case of `CN(C(=O)CO)c1c(I)c(C(=O)NCC(O)CO)c(I)c(C(=O)NCC(O)CO)c1I` (stereo not drawn) [iomeprol], the “TCN2 bands by competition” value on transcobalamin 2 (TCN2) [2] is on record as “concentration-dependent decrease in TCN2 bands”. Further, the “intensity of TCN2 band from heat-eluted samples” value on transcobalamin 2 (TCN2) [3] is given as “intensity of the band corresponding to TCN2 from heat-eluted samples was increased”.

For `C/C1=C2/[N-][C@H]([C@H](CC(N)=O)[C@@]2(C)CCC(=O)NC[C@H](C)OP(=O)([O-])O[C@H]2[C@@H](O)[C@@H](n3cnc4cc(C)c(C)cc43)O[C@@H]2CO)[C@]2(C)N=C(/C(C)=C3N=C(/C=C4N=C1[C@@H](CCC(N)=O)C\4(C)C)[C@@H](CCC(N)=O)[C@]\3(C)CC(N)=O)[C@@H](CCC(N)=O)[C@]2(C)CC(N)=O.[CH3-].[Co+3]` [methylcobalamin], on transcobalamin 2 (TCN2) [2], the “TCN2 bands by competition” value was “concentration-dependent decrease in TCN2 bands”.

On to cyanocobalamin, for which the “expression of KIM-1 in outer cortex (immunostaining)” value in the test on C57BL/6J mice (tail vein, 48 hours after medication, FIG. 2) is on record as “expression of KIM-1 was decreased”. Moreover, the “PAS staining, vacuoles degeneration (injury finding) in kidney cortex” value with C57BL/6J mice (FIG. 3) is reported as “did not have such an injury finding”. Besides, the “TCN2 bands by competition” value at transcobalamin 2 (TCN2) [2] is “concentration-dependent decrease in TCN2 bands”. The “I/N X-ray ratio (iodine/nitrogen) in kidney cortex areas” value in test [4] is on record as “significantly (t-test) lower”.

B1: transcobalamin 2: Recombinant rat transcobalamin 2 protein, a transport protein for vitamin B12 (about 45 kDa) (protein, UniProt Q9R0D6 19-427, looked up)
Transcobalamin-2: EFCVIPKMDGQLVEKLGQRLLPWMDRLSSEQLNPSIYVGLRLSSMQAGTKENLYLHNLKLHYQQCLLRSTSSDDNSGCQTKISGGSLALYLLALRANCELLGSRKGDRMVSQLKWFLEDEKKAIGHHHEGHPHTSYYQYGLSILALCVHRKRVHDSVVGKLLYAVEHDYFTYQGHLSVDTEAMAGLAFTCLERFNFNSDLRPRITTAIETVREKILKAQAPEGYFGNIYSTPLALQMLMTSPGVGLGPACLKARKSLLLSLQDGAFQNPMMISQLLPVLNHKTYLNLISPDCQAPRVMLVPATEDPVHLSEVSVTLKVSSVLPPYERTVSVFAGASLEDVLNRARDLGEFTYGTQASLSGPYLTSVLGKEAGDREYWQLLRVPDTPLLQGIADYKPKNGETIELRLVKM
For B1, the “decrease of QCM frequency” value in the test with megalin [5] was “about 200 Hz”.
